Results as given in patent US12122811B2, “BDNF mimetic peptide amphiphiles” (Northwestern University, priority 2018, dated 2024).
Non-standard residues stand in square brackets, D forms with d. Primed or numbered codes have the meaning given here. No end group written: not given here. PEG6′ = PEG6 spacer

Experiments:
[1] = target: T1, TrkB receptor (Mus musculus, UniProt P15209); assay: TrkB receptor phosphorylation (p-TrkB) by western blot in primary cortical neurons; format: cell-based; details: for TrkB phosphorylation: 4 and 6 h timepoints, 0.5 μM
T1 construct: Protein was extracted from primary neuronal cultures; endogenous in cells; host or cells: primary cortical neurons from E16 CD1 mouse embryos, 14 DIV
T1 sequence (P15209 32-821): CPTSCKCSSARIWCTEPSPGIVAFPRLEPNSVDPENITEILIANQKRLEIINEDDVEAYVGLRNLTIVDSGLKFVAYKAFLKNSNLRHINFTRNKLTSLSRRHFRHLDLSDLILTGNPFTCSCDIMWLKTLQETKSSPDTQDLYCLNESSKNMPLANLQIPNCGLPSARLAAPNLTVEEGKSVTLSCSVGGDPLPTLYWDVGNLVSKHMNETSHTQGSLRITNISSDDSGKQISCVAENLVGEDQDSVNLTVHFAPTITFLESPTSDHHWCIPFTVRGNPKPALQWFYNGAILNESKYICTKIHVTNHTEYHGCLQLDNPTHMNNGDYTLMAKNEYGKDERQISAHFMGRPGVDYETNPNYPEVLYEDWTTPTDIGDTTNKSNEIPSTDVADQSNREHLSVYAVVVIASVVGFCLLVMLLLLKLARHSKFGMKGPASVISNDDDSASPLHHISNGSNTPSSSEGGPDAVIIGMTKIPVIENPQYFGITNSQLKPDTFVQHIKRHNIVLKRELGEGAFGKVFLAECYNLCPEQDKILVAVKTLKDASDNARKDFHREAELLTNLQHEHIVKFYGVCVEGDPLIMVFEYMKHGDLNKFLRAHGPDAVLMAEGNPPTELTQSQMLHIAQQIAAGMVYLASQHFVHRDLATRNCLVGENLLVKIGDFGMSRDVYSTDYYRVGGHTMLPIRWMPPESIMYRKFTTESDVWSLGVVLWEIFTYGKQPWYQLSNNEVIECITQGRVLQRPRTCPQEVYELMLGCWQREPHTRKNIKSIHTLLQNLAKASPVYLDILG
Experimental: 2.3.2. Dissection of Embryonic Primary Cortical Neurons. Neurons were obtained from embryonic brains as described elsewhere.^2 Briefly, time-pregnant mouse was sacrificed by cervical dislocation and the embryos were extracted at embryonic day 16 (E16). Cerebral cortices were dissected from the mouse embryos and meninges were removed in a solution of Hank's Balanced Salt Solution (HBSS) with 1% pen-strep (Invitrogen) and then digested with trypsin (Invitrogen) and DNAse (Sigma-Aldrich) for 10 min at 37° C. The tissue was mechanically dissociated, centrifuged at 1000 g for 5 min, and resuspended in CO2-equilibrated Neurobasal (NB) neuronal culture medium (Invitrogen) supplemented with 10% normal horse serum (NHS) (Invitrogen), 1% pen-strep (Invitrogen), 0.5 mM L-glutamine (Invitrogen), and 5.8 μL NaHCO3/mL (Sigma-Aldrich). The cell suspension was pre-plated at 37° C. for 30 min. Afterwards, the supernatant was collected, passed through a cell strainer with 100 μm pore size and centrifuged at 1000 g for 5 min. The pellet was resuspended in NB neuronal culture medium (1% NHS, 1% pen-strep, 0.5 mM L-glutamine, 22 μM glutamic acid (Sigma-Aldrich), 2% B27 (Gibco), and 5.8 μL NaHCO3/mL (Sigma-Aldrich), and plated at different densities (depending on the type of experiment, see below) directly on tissue culture plates coated with poly-D-lysine (Sigma-Aldrich). After 24 hs, the medium was replaced with serum-free neuronal culture medium (1% pen-strep, 0.5 mM L-glutamine, 2% B27, 5.8 μL NaHCO3/mL). Under these conditions, we obtained a neuron-enriched culture with a composition of approximately 10% glial cells.
BDNF PA Treatments and Cell Culture Procedures. Treatments were prepared by dissolving PA (including E2 Filler, E2 Filler+E4PEG, E2 Filler+Linear BDNF, E2 Filler+BDNF PAs) and BDNF peptide at different concentrations (0.5, 1.0 or 5.0 μM), in media without serum or B27 supplement or starvation media. Unless otherwise noted, BDNF PA, Linear BDNF PA, or E4PEG PAs were co-assembled at 10 mol % with E2 filler PA (total concentration of PA was 5.0, 10.0, or 50.0 μM respectively). For the co-assembly ratio study, BDNF PA was co-assembled at 10, 20, 50, 70, 90, and 100 mol %. Human/Murine/Rat BDNF protein (Peprotech) was resuspended at different concentrations (0.25, 0.5 and 1 nM) in starvation media.
For western blot, cells were cultured in 6 well plates at a density of approximately 900,000 cells/well for 14 DIV before being treated. Treatments were added for 2, 4, 6, 8, 12 or 24 h in vitro before protein was harvested. […] Protein was extracted after six hours of treatment.
Western Blot. Protein was extracted from primary neuronal cultures with Halt Protease and Phosphatase Inhibitor Cocktail (Thermo Scientific) and a BCA assay (Thermo Scientific) was performed to determine protein content of each sample. Cell protein was loaded into and separated using a 4-20% SDS-PAGE gel (Bio-Rad). It was then electrotransferred from the gel to a nitrocellulose membrane (Bio-Rad). The membranes were blocked with 5% milk solution (Bio-Rad) for 30 minutes followed by an overnight incubation with primary antibodies at 4° C. The following primary antibodies were used: rabbit anti-pTrkB (1:1000, Cell Signaling), rabbit anti-TrkB (1:1000, Cell Signaling), rabbit anti-Actin (1:2000, Sigma Aldrich), mouse anti-Actin (1:2000, Sigma Aldrich), rabbit anti-pPLCγ (1:1000, Cell Signaling), rabbit anti-PLCγ (1:1000, Cell Signaling), rabbit anti-pAKT (1:2000, Cell Signaling), mouse anti-AKT (1:2000, Cell Signaling), rabbit anti-pERK1+ERK2 (1:1000, Abcam), rabbit anti-ERK 1/2 (1:1000, Cell Signaling), rabbit anti-PSD95 (1:1000, Abcam), rabbit anti-MAP-2 (1:2000, BioLegend), and mouse anti-Tuj-1 (1:1000, BioLegend). Membranes were then incubated with their corresponding secondary HRP-conjugated antibodies (1:1000; ThermoFisher). Protein signals were detected using Radiance Bioluminescent ECL substrate (Azure Biosystems). […]

[2] = tested on: cortical neurons; assay: Infiltration and maturation of cortical neurons on 3D PA gel scaffolds; format: cell-based, mouse; details: neurons on gels, one week
Experimental: Gels were made using annealed PAs prepared with methods described herein 1. BDNF native protein or BDNF peptide were incorporated by mixing at 10 nM or 0.5 uM respectively, with E2 Filler PA gel at 1 wt % while it was in its liquid state. Silicon isolators with adhesive (Invitrogen) were placed on PDL coated glass coverslips. 70 μL of PA liquid was pipetted into the circular silicon well and a Transwell insert was placed flush with the top of the well of the silicon insert. This step ensured a flat, even thickness for all gels. Gelling solution comprised of 125 mM NaCl, 3 mM KCl, and 25 mM CaCl2 was pipetted into the Transwell insert and allowed to slowly soak down into the material from the top. The insert prevented the gel from swelling more than the thickness of the silicon isolator. All gels were incubated at 37° C. for 5 min before removing the Transwell insert.
Infiltration Study. Gels were prepared as described in 2.1.2. Gels were then rinsed with media one time before cells were seeded on top at a density of approximately 42,000 cells/well. Cells were cultured for one week in vitro. Half of the gels were analyzed by patch clamp analysis (see section 3.4.9. Other gels were fixed with 4% PFA to perform infiltration studies. Cell were stained for MAP2, TUJ-1 and DAPI using immunocytochemistry methods described previously. Confocal microscopy was used to make z-stack reconstructions of each gel. The MultiMeasure function in the ROI manager of ImageJ was used to measure the depth of pixels for each channel which was then plotted as intensity vs depth in the gel. The average intensity of MAP2 was measured by averaging the mean intensities obtained from maximum intensity projections of z-stacks images of gels.

[3] = tested on: mouse model of spinal cord injury; assay: Mouse model of spinal cord injury, Basso Mouse Scale hind limb scoring; format: in vivo; details: 12 weeks after injury; BDNF PA co-assembled at 20 mol % with E2 PA gel, injected 24 h after injury
Excerpt: The spinal cord injury procedures used follow a standardized protocol to ensure a reproducible injury. Mice were anesthetized and their back is opened to reveal the vertebral column. The vertebral bone at T11 was surgically removed to reveal the spinal cord tissue. The mice were then transferred the impactor machine which is used to inflict a compression injury on the exposed spinal cord. The spinal cord was held in place using stereotactic clamps. The instrument inflicts a force of 70-80 kDynes and dwells in the place of the impact for 60 seconds to simulate a crush injury accident. This injury is quite severe. After each impact was performed, the instrument supplies a graph corresponding to the real force and trajectory of the impactor. This graph is used to compare and ensure that all animals receive an injury of the same nature. After the injury is inflicted, the animals were closed and allowed to rest for 24 hours.
The next day, the animals were re-opened and prepared for the “treatment” surgery. Before beginning the procedure, all animals underwent a behavioral assessment and mice with hind limb movement were discarded from the study. When the animal is re-opened, there was typically a dark, bruised area apparent where the crush injury took place the previous day. This is where the treatment was injected. A Hamilton syringe attached to a glass-pulled needle with a diameter of ˜300 μm was used to puncture the bruised dermis of the tissue and the treatment was injected into the underlying tissue cavity. Treatment types include; saline, and the C16V2A2E2 (E2) non-bioactive PA gel as negative controls, as well as the BDNF PA co-assembled at 20 mol % with the E2 non-bioactive PA gel.
After injection, the animals were closed and returned to cages to recover. Over the next 12 weeks, blinded hind limb behavioral scoring was performed to assess any functional changes (FIG. 21). A standardized “Basso Mouse Scale” was used (Basso et al. J Neurotrauma. 2006 May; 23(5):635-59.; herein incorporated by reference in its entirety). Two blinded researchers were either side of a runway where the mouse was guided to move in a straight line. As the mouse walks, each researcher grades the limb movement. Any discrepancies in evaluation were re-evaluated by a third researcher. The score for the two limbs was averaged and marked as the score for that animal.

Compound | TrkB phosphorylation after pre-treatment with inhibitor K252a ([1]; K252a 2 h prior to treatment, 6 h post-treatment) | TrkB phosphorylation [1] | distance that neurites infiltrated from the top of the scaffold [2] [μm] | normalized average of MAP2 intensity [2] | final average limb behavioral score (Basso Mouse Scale) [3]
COC(=O)[C@@]1(O)C[C@H]2O[C@]1(C)n1c3ccccc3c3c4c(c5c6ccccc6n2c5c31)C(=O)NC4 [K252a, reference compound] | completely blocked |  |  |  | 
Linear BDNF PA: non-cyclized BDNF PA synthesized as a control (chain 1 RKK[aK][dP][PEG6′]EEEEAAVV; chain 2 EEAAVV; not fully specified (C-terminus)) |  | lack of TrkB phosphorylation |  |  | 
C16V2A2E2 (EEAAVV) [E2 Filler PA] |  | none of these control conditions were able to induce TrkB phosphorylation | 36.9±9.9 | 0.32±0.06 | 2.4
